# Laboratory results published in patent US8388966B2, “Combination treatment of pancreatic cancer” (Cancer Advances, Inc., priority 2001, dated 2013).
# Counter-ions that a name gives are not always drawn.
# What was measured:
# AR42J cells = conditions: 1 nM CI-988; gastrin 1 nM; after 96 hours of treatment; cited from earlier work
# [1] = in vivo; cited from earlier work
# [2] = after IV administration; cited from earlier work
# pancreatic tumor = test: In vivo pancreatic tumor weight
# Method: This second part of the example depicts cell proliferation of human pancreatic cell lines, PANC-1, BxPC3 and PAN-1 using a tetrazolium-based combined with anti-gastrin G17 antibodies induced by G17DT (10-500 μg/ml). The G17DT elicited antibodies are active against both serum-associated and tumor-secreted, proliferative forms of gastrin. The PAN-1 cell were administered at clinically reflective doses.
# In vivo G17DT alone inhibited basal pancreatic tumor weight by 33% (p=0.016, ANOVA) compared to 38% for Gemcitabine (p=0.004, ANOVA). When combined the agents inhibited tumor weight by 55% which was significant from G17DT alone (p=0.025). Thus the immunological agent G17DT may promote the therapeutic efficacy of Gemcitabine.
# [3] = system: gastrin-sensitive mouse colon tumor, MC26; conditions: xenograft mice bearing MC26; 25 days in control animals; cited from earlier work
# [4] = in vivo; cited from earlier work; remark: listed apart in the source
# [5] = system: hormone-refractory prostate cancer; conditions: 75 mg/m^2 every 21 days, cited from earlier work
smiles,measurement,setting,value
C[C@](Cc1c[nH]c2ccccc12)(NC(=O)OC1[C@H]2C[C@@H]3C[C@@H](C[C@H]1C3)C2)C(=O)NC[C@H](NC(=O)CCC(=O)O)c1ccccc1 (stereo partly drawn) [CI-988],inhibition of proliferation of gastrin-stimulated AR42J cells,AR42J cells,about 47%
"Nc1ccn([C@@H]2O[C@H](CO)[C@@H](O)C2(F)F)c(=O)n1 [Gemcitabine, 2′, 2′, difluorodeoxycytidine]",cumulative toxicity,[1],no evidence of cumulative toxicity
same,overall toxicity,[1],moderate
same,excreted unchanged as gemcitabine,[2],5%
same,inhibition of basal pancreatic tumor weight,pancreatic tumor,38%
CCCN(CCC)C(=O)C(CCC(=O)O)NC(=O)c1ccccc1 (stereo not drawn) [proglumide],survival,[3],39 days
"CCc1c2c(nc3ccc(OC(=O)N4CCC(N5CCCCC5)CC4)cc13)-c1cc3c(c(=O)n1C2)COC(=O)[C@]3(O)CC [Irinotecan, (S)-4,1-diethyl-3,4,12,14-tetrahydro-4-hydroxy-3,14-dioxi-[H-pyrano[3′,4′:67]-indolizino[1,2-b]quinolin-9-yl-[1,4′-bipiperidine]-1′-carboxylate, monohydrochloride, trihydrate]",G1 adverse effects,[4],early and late diarrhea
same,adverse effects in addition to the G1 manifestations,[4],myelosuppresion and hypersensitivity reactions
CC(=O)O[C@@]12CO[C@@H]1C[C@H](O)[C@@]1(C)C(=O)[C@H](O)C3=C(C)[C@@H](OC(=O)[C@H](O)[C@@H](NC(=O)OC(C)(C)C)c4ccccc4)C[C@@](O)([C@@H](OC(=O)c4ccccc4)[C@H]21)C3(C)C [docetaxel],median overall survival,[5],27 months
same,patients with response (more than 40% PSA decline and more than 50% reduction of bi-dimensional cross-products),[5]; including one complete response,17 of the 35
same,median duration of responses,[5]; range 2 to 24 months,nine
same,toxicity,[5]; two deaths during the study,remained tolerable throughout the treatment
